Experiments:
[1] = system: whole blood; test: Ex vivo whole blood incubation, immune cell numbers (Study 6); format: cell-based, mouse or human
Procedure: The profound in vivo activity that is observed in naïve mice and in cancer models must therefore be mediated through the mobilized supercharged Natural Killer T cells, T cells and dendritic cells after AVM0703 HED 6 mg/kg and higher.

[2] = system: splenocytes; test: Ex vivo splenocyte viability by flow cytometry (Study 24); format: cell-based, mouse
Procedure: Splenocytes were cultured for 16 hours prior to assay execution.

[3] = system: whole blood; test: Ex vivo glucocorticoid comparison, whole blood CBC analysis; format: cell-based; details: overnight, room temperature
[4] = system: lymphocytes, monocytes, NKT cells, T cells, dendritic cells; test: In vivo immune cell mobilisation and ablation after high dose glucocorticoid; design: species or system mice; details: HED 15 mg/kg and higher
Text: High doses of glucocorticoid exert powerful biological effects that will contribute to the treatment of lymphocyte-mediated diseases and cancers, as well as microbial diseases. […] This cell type is discussed in greater detail below.
CD4CD8 double positivity on CD3 T lymphocytes indicates a cytotoxic T cell. […] In vivo only lymphocytes, monocytes, some neutrophils and cancer cells have been ablated.
AVM_NKT cells are NKp46+ and Ly6G positive, indicating the potential to directly kill targets as well as to engulf them. The typical AVM_NKT summarized above are not CD1d restricted. […] In vivo, glucocorticoids ablate lymphocytes other than NK and NKT cells, and monocytes, within 6 hours after oral dosing of naïve mice. In tumor models the novel NKT and T cell are not observed in the blood. However, within 48 hours of dosing NKp46+ cells and Ly6G+ cells, which are not macrophages as they are negative for F4/80, can be found in formations within the tumors, surrounding regions of remaining viable tumor. This indicates the functional potency of these cells. In the tumor setting, the AVM novel immune cells are not observed in the blood. They appear to preferentially home to the abnormal cells, in this case cancer cells, and circulating normal monocytes and neutrophils are not depleted as they are in the naïve setting.

[5] = cited from earlier work
[6] = ex vivo or in vitro concentrations equal to peak blood concentrations of HED 7-15 mg/kg or greater

C[C@@H]1C[C@H]2[C@@H]3CCC4=CC(=O)C=C[C@]4(C)[C@@]3(F)[C@@H](O)C[C@]2(C)[C@@]1(O)C(=O)CO [dexamethasone base]
response of ex vivo whole blood ([1]; 100 uM up to 500 uM): no response | numbers of lymphocytes, monocytes, eosinophils, basophils in whole blood ([1]; 500 μM dexamethasone base or 50 RU486, 16 hr, room temperature): no change in numbers | lymphocyte-killing activity in whole blood ([1]; 500 μM dexamethasone base or 50 RU486 alone): does not induce the lymphocyte-killing activity seen in in vivo experiments | response of isolated splenocytes ([2]; 100 uM up to 500 uM): no response | concentrations that do not trigger splenocyte cell death ([2]; after 4 hours): above 100 μM | concentrations with direct killing activity on splenocytes ([2]; after 4 hours): lower than 100

C[C@@H]1C[C@H]2[C@@H]3CCC4=CC(=O)C=C[C@]4(C)[C@@]3(F)[C@@H](O)C[C@]2(C)[C@@]1(O)C(=O)COP(=O)(O)O [dexamethasone phosphate]
direct apoptotic effect on whole blood [1, 6]: no direct apoptotic effect | differences between dexamethasone formulations in ex vivo CBC analysis [3]: no noticeable differences | direct apoptotic effect on splenocytes [2, 6]: no direct apoptotic effect | in vivo effects on colon, pancreas or bone [4]: no effects on colon, pancreas or bone | induction of CD3-very-high T cells and CD11b-very-high dendritic cells [4]: CD11b-very-high dendritic cells are also induced

C[C@]12C=CC(=O)C=C1CC[C@@H]1[C@@H]2C(=O)C[C@@]2(C)[C@H]1CC[C@]2(O)C(=O)CO [prednisone]
biologic half-life [5]: about 20 hours

Source: patent US12648952B2, “Methods of treatment using ICAM-modulating agents” (AVM Biotechnology, LLC, priority 2020, dated 2026)
